The target in this experiment is T1, ELIC (Erwinia chrysanthemi ligand-gated ion channel) (Dickeya chrysanthemi, UniProt P0C7B7).
T1 sequence (P0C7B7 1-321): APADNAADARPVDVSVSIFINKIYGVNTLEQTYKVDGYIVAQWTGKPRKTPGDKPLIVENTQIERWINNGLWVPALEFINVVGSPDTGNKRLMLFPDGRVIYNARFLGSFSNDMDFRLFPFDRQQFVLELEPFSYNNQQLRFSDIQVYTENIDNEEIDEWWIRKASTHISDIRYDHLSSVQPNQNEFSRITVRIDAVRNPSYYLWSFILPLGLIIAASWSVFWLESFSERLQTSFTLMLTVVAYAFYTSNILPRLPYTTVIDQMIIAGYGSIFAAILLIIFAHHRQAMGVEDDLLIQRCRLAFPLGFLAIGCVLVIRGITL
Description: ITC. Format: cell-based.

The source of these data is paper PMC4586589 (The Journal of General Physiology, 2015).

One may read the EC50 as the concentration giving half of the maximal effect. The low end stands for an effect from little substance, the high end for a need for much substance. Consider `NCCCO` [3-AP, 3-amino propanol], for which the response was half-maximal at 10.02 ± 0.05 mM (EC50).
